Laboratory results: patent publication US20130122541A1, “MICROORGANISM PRODUCTION OF HIGH-VALUE CHEMICAL PRODUCTS, AND RELATED COMPOSITIONS, METHODS AND SYSTEMS” (The Regents of the University of Colorado, priority 2010, published 2013)
In brackets after ≈: the same amount, converted by molar mass. Where two headings read alike, the source gives them in different places.

Columns and labels:
[1] = test system: Yeast strains (S288C background); test: microbe, parasite or virus in culture; format: cell-based, Saccharomyces cerevisiae
Description: The minimum inhibitory concentration (MIC) was determined anaerobically in a 96 well-plate format. […] A 1% (v/v) inoculum was introduced into a 5 ml culture of SD minimal media without vitamins. After the cells reached mid-exponential phase, the culture was diluted to an OD600 of 0.200. The cells were further diluted 1:5 and a 10 μL aliquot was used to inoculate each well of a 96 well plate (˜10^4 cells per well) to total volume of 100 uL. […] Plates were incubated for 72 hours at 30 C. […] Plates were sealed in biobag anaerobic chambers that contained gas generators for anaerobic conditions and incubated for 72 hours at 30 C.

C. necator (R. eutropha) = test: MIC evaluation of 3-HP, C. necator (R. eutropha) aerobic, FGN media, 96 well-plate, 24 h (Common Methods); format: cell-based; conditions: for % Increase Over Control: supplements none, vs control, aerobic
Description: For MIC evaluations, the final results are expressed in chemical agent concentrations determined by analysis of the stock solution by HPLC (i.e., see Subsection IIIb). The minimum inhibitory concentration (MIC) was determined aerobically in a 96 well-plate format. […] Media supplements were added according to levels reported in Supplements Table, where specified. Overnight cultures of strains were grown in triplicate in 5 mL LB (with antibiotic where appropriate). […] The cells were further diluted 1:50 and a 10 μL aliquot was used to inoculate each well of a 96 well plate (˜10^4 cells per well) to total volume of 100 uL. […] Plates were incubated for 24 hours at 30 C.

[2] = test system: E. coli K12+pSMART-LC-Kan-cynTS; format: cell-based; conditions: Escherichia coli, 24 h, read-out: Minimum inhibitory concentration (MIC) of 3-HP for E. coli K12+pSMART-LC-Kan-cynTS in M9 minimal media
Description: Overnight cultures of strains were grown in 5 ml LB (with antibiotic where appropriate) at 37° C. in a shaking incubator. A 1 v/v % was used to inoculate 10 mL of M9 minimal media. After the cells reached mid-exponential phase, the culture was diluted to an OD600 of 0.200. The cells were further diluted 1:20 and a 10 ul aliquot was used to inoculate each well (˜10^4 cells per well). […] The MIC endpoint is the lowest concentration of compound at which there was no visible growth.
Purified plasmid was retransformed into E. coli K12 by standard techniques and MIC measured as described in Example 37.

E. coli = test: microbe, parasite or virus in culture; format: cell-based; conditions: for % Increase Over Control: anaerobic; for MIC: Escherichia coli
Description: For MIC evaluations, the final results are expressed in chemical agent concentrations determined by analysis of the stock solution by HPLC (i.e., see Subsection IIIb).
The minimum inhibitory concentration (MIC) was determined anaerobically in a 96 well-plate format. […] Media supplements were added according to levels reported in the Supplements Table, where specified. Overnight cultures of strains were grown in triplicate in 5 mL LB (with antibiotic where appropriate). A 1% (v/v) inoculum was introduced into a 5 ml culture of M9 minimal media.

O=C(O)CCO [3-HP, 3-hydroxypropionic acid]
% Increase Over Control ([1]; strain YX-CJR-016 (pyes2.1-Aro3) vs YX-CJR-001, anaerobic): 25%
% Increase Over Control ([1]; strain YX-CJR-018 (pyes2.1-Tyr1) vs YX-CJR-001, anaerobic): 25%
% Increase Over Control ([1]; strain YX-CJR-021 (pYes2.1-Trp1) vs YX-CJR-001, anaerobic): 25%
% Increase Over Control (C. necator (R. eutropha); C. necator DSM 542, EZ Rich media): 200%
% Increase Over Control (C. necator (R. eutropha); C. necator DSM 542, FGN media): 0%
MIC (C. necator (R. eutropha); read-out: average MIC Assay Result (g/L 3-HP), C. necator DSM428, FGN media, supplements none (control), aerobic): 15 g/L (≈ 167 mM)
MIC (C. necator (R. eutropha); read-out: average MIC Assay Result (g/L 3-HP), C. necator DSM 542, EZ Rich media, supplements none, aerobic): 60 g/L (≈ 666 mM)
MIC (C. necator (R. eutropha); read-out: average MIC Assay Result (g/L 3-HP), C. necator DSM 542, FGN media, supplements none, aerobic): 15 g/L (≈ 167 mM)
MIC [2]: 50 mg/mL (≈ 555 mM)
% Increase Over Control (E. coli; BW25113, EZ Rich media vs M9 control): 150%
MIC (E. coli; BW25113, read-out: MIC Assay Result (g/L 3-HP), BW25113, EZ Rich media, supplements none, anaerobic): 75 g/L (≈ 833 mM)
MIC (E. coli; BW25113, read-out: MIC Assay Result (g/L 3-HP), BW25113, M9, supplements none (control), anaerobic): 30 g/L (≈ 333 mM)
MIC (E. coli; BW25113, read-out: MIC Assay Result (g/L 3-HP), anaerobic, strain BX_00002.0: BW25113 wild type, pKK223-mcs1 (control), M9 + Amp (100 μg/mL)): 15 g/L
MIC (E. coli; BW25113, read-out: MIC Assay Result (g/L 3-HP), anaerobic, strain BX_00003.0: BW25113 wild type, pBT-3 (control), M9 + Cm (20 μg/mL)): 15 g/L
MIC (E. coli; BW25113, read-out: MIC Assay Result (g/L 3-HP), anaerobic, strain BX_00118.0: BW25113 wild type, pJ251 (control), M9 + Kan (20 μg/mL)): 15 g/L
MIC (E. coli; BW25113, read-out: MIC Assay Result (g/L 3-HP), anaerobic, strain BX_00138.0: BW25113 wild type, pSmart-LC-Kan (control), M9 + Kan (20 μg/mLl)): 25 g/L
MIC (E. coli; BW25113, read-out: MIC Assay Result (g/L 3-HP), anaerobic, strain BX_00144.0: BW25113 wild type, pSmart-HC-Amp (control), M9 + Amp (100 μg/mL)): 25 g/L
MIC (E. coli; BW25113, read-out: MIC Assay Result (g/L 3-HP), anaerobic, strain BX_00319.0: BW25113 wild type, pK223-aroH, M9 + Amp 100 μg/mL + 1 mM IPTG): 20 g/L
MIC (E. coli; BW25113, read-out: MIC Assay Result (g/L 3-HP), anaerobic, strain BX_00320.0: BW25113 wild type, pK223-metE C645A, M9 + Amp 100 μg/mL + 1 mM IPTG): 20 g/L
MIC (E. coli; BW25113, read-out: MIC Assay Result (g/L 3-HP), anaerobic, strain BX_00322.0: BW25113 wild type, pJ61-speFED, M9 + Kan 20 μg/mL): 25 g/L
MIC (E. coli; BW25113, read-out: MIC Assay Result (g/L 3-HP), anaerobic, strain BX_00323.0: BW25113 wild type, pJ61-aroG, M9 + Kan 20 μg/mL): 20 g/L
MIC (E. coli; BW25113, read-out: MIC Assay Result (g/L 3-HP), anaerobic, strain BX_00324.0: BW25113 wild type, pJ61-thrA, M9 + Kan 20 μg/mL): 20 g/L
MIC (E. coli; BW25113, read-out: MIC Assay Result (g/L 3-HP), anaerobic, strain BX_00325.0: BW25113 wild type, pJ61-asd, M9 + Kan 20 μg/mL): 20 g/L
MIC (E. coli; BW25113, read-out: MIC Assay Result (g/L 3-HP), anaerobic, strain BX_00326.0: BW25113 wild type, pJ61-ilvA, M9 + Kan 20 μg/mL): 20 g/L
MIC (E. coli; BW25113, read-out: MIC Assay Result (g/L 3-HP), anaerobic, strain BX_00327.0: BW25113 wild type, pJ61-cysM, M9 + Kan 20 μg/mL): 20 g/L
MIC (E. coli; BW25113, read-out: MIC Assay Result (g/L 3-HP), anaerobic, strain BX_00357.0: BW25113 wild type, pKK223-aroH*445, M9 + Amp 100 μg/mL + 1 mM IPTG): 20 g/L
MIC (E. coli; BW25113, read-out: MIC Assay Result (g/L 3-HP), anaerobic, strain BX_00358.0: BW25113 wild type, pKK223-aroH*447, M9 + Amp 100 μg/mL + 1 mM IPTG): 20 g/L
MIC (E. coli; BW25113, read-out: MIC Assay Result (g/L 3-HP), anaerobic, strain BX_00359.0: BW25113 wild type, pKK223-aroH*457, M9 + Amp 100 μg/mL + 1 mM IPTG): 20 g/L
MIC (E. coli; BW25113, read-out: MIC Assay Result (g/L 3-HP), anaerobic, strain BX_00360.0: BW25113 wild type, pACYC177 (Kan only)-cynTS, M9 + Kan 20 μg/mL): 20 g/L
MIC (E. coli; BW25113, read-out: MIC Assay Result (g/L 3-HP), anaerobic, strain BX_00362.0: BW25113 wild type, pACYC177 (Kan only)-aroH, M9 + Kan 20 μg/mL + 1 mM IPTG): 20 g/L
MIC (E. coli; BW25113, read-out: MIC Assay Result (g/L 3-HP), anaerobic, strain BX_00363.0: BW25113 wild type, pACYC177 (Kan only)-speB, M9 + Kan 20 μg/mL): 20 g/L
MIC (E. coli; BW25113, read-out: MIC Assay Result (g/L 3-HP), anaerobic, strain BX_00364.0: BW25113 wild type, pACYC177 (Kan only)-metE, M9 + Kan 20 μg/mL + 1 mM IPTG): 20 g/L
MIC (E. coli; BW25113, read-out: MIC Assay Result (g/L 3-HP), anaerobic, strain BX_00365.0: BW25113 wild type, pACYC177 (Kan only)-metC, M9 + Kan 20 μg/mL): 20 g/L
MIC (E. coli; BW25113, read-out: MIC Assay Result (g/L 3-HP), anaerobic, strain BX_00368.0: BW25113 wild type, pBT-3-cynTS, M9 + Cm (20 μg/mL)): 20 g/L
MIC (E. coli; BW25113, read-out: MIC Assay Result (g/L 3-HP), anaerobic, strain BX_00426.0: BW25113 ΔnrdR::frt, pSmart-HC-Amp-cadA, M9 + Amp (100 μg/mL)): 26.7 g/L
% Increase Over Control (E. coli; strain BX_00311.0 (pSmart-LC-Kan-glyA-ORF)): 20%
% Increase Over Control (E. coli; strain BX_00319.0 (pK223-aroH)): 33%
% Increase Over Control (E. coli; strain BX_00320.0 (pK223-metE C645A)): 33%
% Increase Over Control (E. coli; strain BX_00321.0 (pK223-ct-his-thrA)): 33%
% Increase Over Control (E. coli; strain BX_00322.0 (pJ61-speFED)): 67%
% Increase Over Control (E. coli; strain BX_00323.0 (pJ61-aroG)): 33%
% Increase Over Control (E. coli; strain BX_00324.0 (pJ61-thrA)): 33%
% Increase Over Control (E. coli; strain BX_00325.0 (pJ61-asd)): 33%
% Increase Over Control (E. coli; strain BX_00326.0 (pJ61-ilvA)): 33%
% Increase Over Control (E. coli; strain BX_00327.0 (pJ61-cysM)): 33%
% Increase Over Control (E. coli; strain BX_00357.0 (pKK223-aroH*445)): 33%
% Increase Over Control (E. coli; strain BX_00358.0 (pKK223-aroH*447)): 33%
% Increase Over Control (E. coli; strain BX_00359.0 (pKK223-aroH*457)): 33%
% Increase Over Control (E. coli; strain BX_00360.0 (pACYC177 (Kan only)-cynTS)): 33%
% Increase Over Control (E. coli; strain BX_00362.0 (pACYC177 (Kan only)-aroH)): 33%
% Increase Over Control (E. coli; strain BX_00363.0 (pACYC177 (Kan only)-speB)): 33%
% Increase Over Control (E. coli; strain BX_00364.0 (pACYC177 (Kan only)-metE)): 33%
% Increase Over Control (E. coli; strain BX_00365.0 (pACYC177 (Kan only)-metC)): 33%
% Increase Over Control (E. coli; strain BX_00368.0 (pBT-3-cynTS)): 33%
% Increase Over Control (E. coli; strain BX_00426.0 (ΔnrdR::frt, pSmart-HC-Amp-cadA)): 7%
